{"source": "patent US12559489B2", "about": "“Antagonistic small molecule compound having toll-like receptor 7/9 inhibitory function” (AJOU UNIVERSITY INDUSTRY-ACADEMIC COOPERATION FOUNDATION, priority 2020, dated 2026)", "key": {"TLR9": {"target": "T1, TLR9 (Mus musculus, UniProt Q9EQU3)", "T1 construct": "host or cells: RAW264.7 murine macrophages", "T1 sequence (Q9EQU3 26-1032)": "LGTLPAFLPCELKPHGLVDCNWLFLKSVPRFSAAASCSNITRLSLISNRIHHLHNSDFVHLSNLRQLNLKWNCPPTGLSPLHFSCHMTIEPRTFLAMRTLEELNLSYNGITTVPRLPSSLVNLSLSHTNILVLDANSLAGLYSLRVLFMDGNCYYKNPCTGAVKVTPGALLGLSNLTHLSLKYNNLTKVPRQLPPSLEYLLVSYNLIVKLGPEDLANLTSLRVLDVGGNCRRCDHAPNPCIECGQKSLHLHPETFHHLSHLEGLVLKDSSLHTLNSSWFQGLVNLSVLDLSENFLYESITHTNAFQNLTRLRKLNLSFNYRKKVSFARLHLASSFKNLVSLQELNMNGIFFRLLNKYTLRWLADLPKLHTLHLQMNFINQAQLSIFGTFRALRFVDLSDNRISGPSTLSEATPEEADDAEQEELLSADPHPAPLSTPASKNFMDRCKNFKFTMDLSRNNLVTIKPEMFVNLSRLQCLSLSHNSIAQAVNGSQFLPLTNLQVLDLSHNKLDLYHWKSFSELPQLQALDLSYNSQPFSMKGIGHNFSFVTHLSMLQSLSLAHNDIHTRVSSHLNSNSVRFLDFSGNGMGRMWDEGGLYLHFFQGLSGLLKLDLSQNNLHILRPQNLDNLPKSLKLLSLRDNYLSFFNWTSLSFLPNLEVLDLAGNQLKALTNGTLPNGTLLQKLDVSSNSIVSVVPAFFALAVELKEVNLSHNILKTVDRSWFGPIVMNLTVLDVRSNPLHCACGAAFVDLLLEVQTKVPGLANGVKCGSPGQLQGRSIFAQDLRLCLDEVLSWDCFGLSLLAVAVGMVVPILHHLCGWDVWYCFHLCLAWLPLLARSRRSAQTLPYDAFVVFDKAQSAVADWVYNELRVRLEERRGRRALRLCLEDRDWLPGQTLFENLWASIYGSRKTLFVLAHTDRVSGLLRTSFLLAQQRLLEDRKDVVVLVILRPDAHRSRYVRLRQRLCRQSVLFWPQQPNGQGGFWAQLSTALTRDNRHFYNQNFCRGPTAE", "test": "Inhibition of ODN 2395 (TLR9 agonist)-induced TNF-α secretion in RAW264.7 cells, ELISA", "assay_type": "cell-based, murine", "settings": "for inhibition of secretion of TLR9-induced TNF-α: in the presence of ODN 2395, 1, 10 or 50 μM, ELISA (FIG. 7B and 7C)", "method": "(§1) RAW264.7 cells, which are murine macrophages (ATCC, Manassas, VA, USA), were incubated in low-glucose DMEM (Thermo Fisher Scientific Inc.) supplemented with 10% FBS, 100 IU/ml of penicillin and 100 μg/ml of streptomycin in an incubator. Imiquimod (IMQ; TLR7 agonist) and CpG-ODN (ODN 2395; TLR9 agonist) were obtained from InvivoGen (San Diego, CA, USA), and hydroxychloroquine (HCQ; endosomal TLRs inhibitor) was obtained from Sigma Aldrich Co. (St. Louis, MO, USA).\n(§2) RAW264.7 cells were incubated along with 1, 10 or 50 μM of a compound. After 24 hours, MTT (3-(4,5-dimethylthiazol-2-yl)-2,5-diphenyltetrazolium bromide) assay and enzyme-linked immunosorbent assay (ELISA) were sequentially performed.\n(§3) ODN 2395 was used as a ligand to activate TLR9 and IMQ was used to induce TLR7 activity. The inhibitory effects of TAC5-050 and TAC5-051 against TLR9 or TLR7 were determined. HCQ, which is known to inhibit endosomal TLRs, was used as a control group. Since the median inhibitory concentration was expected to range from 50 and 20 μM, the concentration range was set to decrease by half from the high concentration (50 μM) to the low concentration ([…]).\n(§4) RAW264.7 cells (2×10^4 cells/well) were treated with small molecule compounds and HCQ for 1 hour (0.25% DMSO), incubated and then treated with ODN 2395 (0.5 μM) or IMQ (1 μg/ml) for 4 hours. Then, the ELISA for detecting mTNF-α was performed in accordance with the following protocol: • 1. Transfer samples from 96 well cell culture plate to elisa coated plate) and incubate for 2 h • 2. Treat detection antibody and incubate for 1 h • 3. Treat HRP and incubate for 30 min • 4. Treat TMB and read the samples by using micro-plate reader machine"}, "RAW264.7 cells": {"tested_on": "RAW264.7 cells", "test": "MTT cytotoxicity assay in RAW264.7 cells", "assay_type": "cell-based, murine", "settings": "RAW264.7 cells, 1, 10 and 50 μM, 24 hours (FIG. 7A)", "method": "as §1, §2"}, "TLR7": {"target": "T2, TLR7 (Mus musculus, UniProt P58681)", "T2 construct": "host or cells: RAW264.7 murine macrophages", "T2 sequence (P58681 27-1050)": "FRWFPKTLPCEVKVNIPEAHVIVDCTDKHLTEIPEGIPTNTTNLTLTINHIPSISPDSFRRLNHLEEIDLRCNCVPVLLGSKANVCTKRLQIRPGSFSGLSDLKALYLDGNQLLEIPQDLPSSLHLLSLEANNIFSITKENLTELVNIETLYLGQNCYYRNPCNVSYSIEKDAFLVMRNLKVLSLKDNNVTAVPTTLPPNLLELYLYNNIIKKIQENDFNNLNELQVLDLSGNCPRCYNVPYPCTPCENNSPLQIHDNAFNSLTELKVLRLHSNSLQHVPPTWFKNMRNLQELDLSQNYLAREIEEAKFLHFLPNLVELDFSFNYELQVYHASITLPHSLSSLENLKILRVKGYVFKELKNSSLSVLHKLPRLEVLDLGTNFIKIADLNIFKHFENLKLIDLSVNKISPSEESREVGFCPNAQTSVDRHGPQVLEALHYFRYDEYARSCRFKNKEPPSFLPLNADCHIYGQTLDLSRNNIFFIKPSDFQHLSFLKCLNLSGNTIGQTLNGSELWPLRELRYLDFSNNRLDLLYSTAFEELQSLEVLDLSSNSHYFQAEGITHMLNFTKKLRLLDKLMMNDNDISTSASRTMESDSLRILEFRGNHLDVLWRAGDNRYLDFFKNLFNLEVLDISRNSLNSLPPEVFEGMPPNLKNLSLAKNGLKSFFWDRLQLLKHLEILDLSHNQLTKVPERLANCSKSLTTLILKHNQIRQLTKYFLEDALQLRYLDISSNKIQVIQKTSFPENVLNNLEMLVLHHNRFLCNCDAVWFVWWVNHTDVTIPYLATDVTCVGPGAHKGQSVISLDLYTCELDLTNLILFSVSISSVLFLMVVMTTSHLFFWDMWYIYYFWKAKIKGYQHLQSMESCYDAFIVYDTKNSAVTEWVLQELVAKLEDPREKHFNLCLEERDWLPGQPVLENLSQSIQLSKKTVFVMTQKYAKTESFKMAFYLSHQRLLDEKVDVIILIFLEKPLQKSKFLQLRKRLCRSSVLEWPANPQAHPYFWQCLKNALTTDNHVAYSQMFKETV", "test": "Inhibition of IMQ (TLR7 agonist)-induced TNF-α secretion in RAW264.7 cells, ELISA", "assay_type": "cell-based, murine", "settings": "for inhibition of secretion of TLR7-induced TNF-α: in the presence of IMQ, 1, 10 or 50 μM, ELISA (FIG. 7B and 7C)", "method": "as §1, §2, §3, §4"}, "[1]": {"test": "Solubility noted during preparation", "assay_type": "physicochemical", "settings": "remark in the preparation example, no medium stated", "method": "0.5 g (4.2 mmol) of […] was dissolved in 50 ml of MC, and 2.8 g (21 mmol, 5 eq) of AlCl3 was added thereto, followed by stirring at room temperature for 1 hour. A solution of 2.28 g (12.3 mmol) of p-nitrobenzoyl chloride in 10 ml of MC was added dropwise to the reaction solution at room temperature. The mixture was stirred overnight. When the reaction was completed, the reactor containing the concentrated residue was placed in an ice bath, 30 g of ice water was added thereto, and then stirred for 1 hour. Then, the result was filtered and washed with water. The solid was dissolved in 30 mL of MC and 10 mL of MeOH, and washed with 30 mL of Sat'd NaHCO3, and the layers were separated. The MC layer was washed with water, and the organic layer was dried over MgSO4, filtered, and concentrated under reduced pressure. After refluxing in 20 ml of IPA, the result was stirred at room temperature for 1 hour and then filtered. The solid was refluxed in 20 ml of MC, stirred at room temperature for 1 hour, and filtered to prepare 85 mg of (3-nitro-phenyl)-(1H-pyrrolo[2,3-b]pyridin-3-yl)-methanone (yield: 7.5%). However, it was not easy to remove impurities, so the yield was low and solubility was also low."}}, "note": "Read-outs that look alike come from different tables or passages of the source."}
{"smiles": "CC(C)n1cc(C(=O)c2ccccc2)c2cccnc21", "note": "[TAC5-050, (1-Isopropyl-1H-pyrrolo[2,3-b]pyridin-3-yl)-phenyl-methanone]", "values": [{"measurement": "IC50", "setting": "TLR9", "value": 53.1, "unit": "µM"}, {"measurement": "inhibition of secretion of TLR9-induced TNF-α", "setting": "TLR9; RAW264.7 cells", "value": "inhibited the secretion of TLR7- or TLR9-induced TNF-α in a dose-dependent manner"}, {"measurement": "cytotoxicity (MTT assay)", "setting": "RAW264.7 cells", "value": "non-cytotoxic"}, {"measurement": "IC50", "setting": "TLR7", "value": 24, "unit": "µM"}, {"measurement": "inhibition of secretion of TLR7-induced TNF-α", "setting": "TLR7; RAW264.7 cells", "value": "inhibited the secretion of TLR7- or TLR9-induced TNF-α in a dose-dependent manner"}]}
{"smiles": "O=C(c1ccc(Cl)c(Cl)c1)c1c[nH]c2ncccc12", "note": "[TAC5-053, (3,4-Dichloro-phenyl)-(1H-pyrrolo[2,3-b]pyridin-3-yl)-methanone]", "values": [{"measurement": "cytotoxicity (MTT assay)", "setting": "RAW264.7 cells", "value": "cytotoxic"}]}
{"smiles": "O=C(c1cccc([N+](=O)[O-])c1)c1c[nH]c2ncccc12", "note": "[TAC5-052, (3-Nitro-phenyl)-(1H-pyrrolo[2,3-b]pyridin-3-yl)-methanone]", "values": [{"measurement": "solubility", "setting": "[1]", "value": "low"}, {"measurement": "cytotoxicity (MTT assay)", "setting": "RAW264.7 cells", "value": "cytotoxic"}]}
{"smiles": "O=C(c1ccc(Cl)c(F)c1)c1c[nH]c2ncccc12", "note": "[TAC5-054, (4-Chloro-3-fluoro-phenyl)-(1H-pyrrolo[2,3-b]pyridin-3-yl)-methanone]", "values": [{"measurement": "cytotoxicity (MTT assay)", "setting": "RAW264.7 cells", "value": "cytotoxic"}]}
{"smiles": "O=C(c1ccccc1)c1cn(S(=O)(=O)c2ccccc2)c2ncccc12", "note": "[TAC5-051, (1-Benzenesulfonyl-1H-pyrrolo[2,3-b]pyridin-3-yl)-phenyl-methanone]", "values": [{"measurement": "IC50", "setting": "TLR9; RAW264.7 cells, compound 1 hour, then ODN 2395 (0.5 μM) 4 hours, mTNF-α ELISA (FIG. 8), read-out: IC50 for TLR9", "value": 13.8, "unit": "µM"}, {"measurement": "inhibition of secretion of TLR9-induced TNF-α", "setting": "TLR9; RAW264.7 cells", "value": "inhibited the secretion of TLR7- or TLR9-induced TNF-α in a dose-dependent manner"}, {"measurement": "cytotoxicity (MTT assay)", "setting": "RAW264.7 cells", "value": "non-cytotoxic"}, {"measurement": "IC50", "setting": "TLR7; RAW264.7 cells, compound 1 hour, then IMQ (1 μg/ml) 4 hours, mTNF-α ELISA (FIG. 9), read-out: IC50 for TLR7", "value": 10.8, "unit": "µM"}, {"measurement": "inhibition of secretion of TLR7-induced TNF-α", "setting": "TLR7; RAW264.7 cells", "value": "inhibited the secretion of TLR7- or TLR9-induced TNF-α in a dose-dependent manner"}]}
{"smiles": "O=C(c1ccccc1)c1c[nH]c2ncc(Cl)cc12", "note": "[TAC5-055, (5-Chloro-1H-pyrrolo[2,3-b]pyridin-3-yl)-phenyl-methanone]", "values": [{"measurement": "cytotoxicity (MTT assay)", "setting": "RAW264.7 cells", "value": "cytotoxic"}]}
